Consider nine compounds from patent US10350206B2, “Benzyl substituted indazoles as BUB1 inhibitors” (Bayer Pharma Aktiengesellschaft, priority 2014, dated 2019).

Test [1] has as its system HeLa human cervical tumor cells. Kind of test: Proliferation Assay (HeLa+Paclitaxel). It is filed as cell-based. The note with it: 3 nM paclitaxel, test substance 92 hours; read-out: Biological Assay 3: Proliferation Assay (HeLa + Paclitaxel) IC50. The procedure: Proliferation Assay (HeLa+Paclitaxel):
(§1) Cultivated HeLa human cervical tumor cells (DSMZ ACC-57) were plated at a density of 3000 cells/well in a 96-well multititer plate in 200 μL of growth medium supplemented 10% fetal calf serum. After 24 hours, the cells of one plate (zero-point plate) were stained with crystal violet (see below). The medium of the other plates was supplemented with 3 nM of paclitaxel (Sigma-Aldrich) and the cells were incubated at 37° C. After 4 hours the test substances were added in various concentrations (0 μM, as well as in the range of 0.001-10 μM; the final concentration of the solvent dimethyl sulfoxide was adjusted to 0.1%) using a Hewlett-Packard HP D300 Digital Dispenser. The cells were incubated for another 92 hours at 37° C. in the presence of test substances. […] After three washing cycles of the fixed cells with water, the plates were dried at room temperature. The cells were stained by adding 100 μL/measuring point of a 0.1% crystal violet solution (pH 3.0). After three washing cycles of the stained cells with water, the plates were dried at room temperature. The dye was dissolved by adding 100 μL/measuring point of a 10% acetic acid solution. […] The change of cell number, in percent, was calculated by normalization of the measured values to the absorption values of the zero-point plate (=0%) and the 5 absorption of the untreated (0 μm) cells (=100%). The IC50 values were determined by means of a 4 parameter fit.

For test [2] the test system is unchanged. Kind of test: Proliferation assay (HeLa cell line). It is filed as cell-based. The conditions noted are these: 96 h, 4 days incubation, crystal violet, read-out: Biological Assay 2: Proliferation assay (HeLa cell line) median IC50. The procedure: as §1, with “Human tumour cells were originally obtained from the American Type Culture Collection (ATCC), the Deutsche Sammlung von Mikroorganismen und Zellkulturen (DSMZ, German Collection of Microorganisms and Cell Cultures), or Epo GmbH Berlin. Cultivated” for “Cultivated”, “below), while the” for “below). The”, “with” for “with 3 nM of paclitaxel (Sigma-Aldrich) and the cells were incubated at 37° C. After 4 hours”, “substances” for “substances were added”, “4 days” for “another 92 hours at 37° C.”, “the” for “the 5”

Test [3] has as its system Bub1 kinase (histone 2A phosphorylation). Kind of test: H2A Formation-Assay (cell-based mechanistic assay, co-treatment with Nocodazole). The conditions noted are these: 16 h, Nocodazole 1 μg/ml together with test compound for 16 h; read-out: Biological Assay 4.1: H2A Formation IC50. The procedure: Biological Assay 4.1: Formation-Assay
Cell-Based Mechanistic Assay: Changes of Phosphorylation Status of Histone 2A by Inhibition of Kinase Activity of Bub1
This assay determines the suppression of histone 2A phosphorylation by a Bub1 kinase inhibitor during co-treatment with Nocodazole. 25000 cells (cells were ordered from ATCC) were seeded in 96 well plate for 5 h at 37° C. Cells were treated with Nocodazole (1 μg/ml) and varying concentrations (between 3 nM and 10 μM) of test compounds for 16h. Cells were fixed (20 min, Fixing solution R&D), washed three times with PBS and blocked with Odyssey blocking buffer before incubating with the primary antibody against phosphorylated H2A (5 μg/ml ABIN482721) overnight at […]. After washing, secondary IRDye-labeled antibody mix with cell stains was added for 1h and washed again with PBS. Plates were scanned with LiCor Odyssey Infrared Imager CLx at 800 nm for P-H2A and at 700 nm for cell stains Draq5/Sapphire. The quotient of 800 nm and 700 nm for Nocodazole only treated cells was set as 100% and the quotient of 800 nm and 700 nm of untreated cells was set as 0%. […] The IC50 values were determined by means of a 4 parameter fit.
(§2) Histone H2A is an immediate intracellular substrate of Bub1 kinase. Determination of the phosphorylation status of Histone H2A provides a direct measure of the intracellular activity of Bub1 kinase.

Test [4] has as its target T1, catalytic domain of human Bub1 (amino acids 704-1085) (Homo sapiens, UniProt O43683).
T1 construct: catalytic domain of human Bub1 (amino acids 704-1085); His6 (N); made in house; host or cells: Hi5 insect cells
Description: Bub1 kinase assay (TR-FRET). The conditions noted are these: 10 μM ATP, 60 min reaction, pH 7.5; read-out: Biological Assay 1: Bub1 kinase assay median IC50. It is filed as biochemical. The procedure:
To this end, 100-fold concentrated compound solutions (in DMSO) were previously prepared by serial dilution (1:3.4) of 2 mM stocks in a clear low volume 384-well source microtiter plate (Greiner Bio-One, Frickenhausen, Germany), from which 50 nL of compounds were transferred into a black low volume test microtiter plate from the same supplier. […] The resulting mixture (5 μL final volume) was incubated at 22° during 60 min., and the reaction was stopped by the addition of 5 μL of an aqueous EDTA-solution (50 mM EDTA, in 100 mM HEPES pH 7.5 and 0.2% (w/v) bovine serum albumin) which also contained the TR-FRET detection reagents (0.2 μM streptavidin-XL665 [Cisbio Bioassays, Codolet, France] and 1 nM anti-phosho-Serine antibody [Merck Millipore, cat. #35-001] and 0.4 nM LANCE EU-W1024 labeled anti-mouse IgG antibody [Perkin-Elmer, product no. AD0077, alternatively a Terbium-cryptate-labeled anti-mouse IgG antibody from Cisbio Bioassays can be used]). The stopped reaction mixture was further incubated 1 h at 22° C. in order to allow the formation of complexes between peptides and detection reagents. Subsequently, the amount of product was evaluated by measurement of the resonance energy transfer from the Eu-chelate-antibody complex recognizing the Phosphoserine residue to the streptavidin-XL665 bound to the biotin moiety of the peptide. […] IC50 values were calculated by fitting the normalized inhibition data to a 4-parameter logistic equation (Minimum, Maximum, IC50, Hill; Y=Max+(Min−Max)/(1+(X/IC50)Hill)).

For test [5], the system named is Bub1 kinase (pre-induced phospho-histone 2A). Description: H2A Abrogation-Assay (cell-based mechanistic assay, pre-treatment with Nocodazole). The conditions noted are these: Nocodazole 1 μg/ml 16 h, then test compound 1 h; read-out: Biological Assay 4.2: H2A Abrogation IC50. The procedure: Biological Assay 4.2: Abrogation-Assay
Cell-Based Mechanistic Assay: Changes of Phosphorylation Status of Pre-Induced Phospho-Histone 2A by Inhibition of Kinase Activity of Bub1
This assay measures the inhibition of histone 2A phosphorylation, which was induced by pre-treatment of the cells with Nocodazole, by a Bub1 kinase inhibitor. 25000 cells (cells were ordered from ATCC) were seeded in 96 well plate for 5 h at 37° C. Cells were treated with Nocodazole (1 μg/ml). After 16h varying concentrations (between 3 nM and 10 μM) of test compounds were added and the cells were incubated for another 1h. Cells were fixed (20 min, Fixing solution R&D), washed three times with PBS and blocked with Odyssey blocking buffer before incubating with the primary antibody against phosphorylated H2A (5 μg/ml ABIN482721) overnight at 2-8° C. After washing, secondary IRDye-labeled antibody mix with cell stains was added for 1h and washed again with PBS. Plates were scanned with LiCor Odyssey Infrared Imager CLx at 800 nm for P-H2A and at 700 nm for cell stains Draq5/Sapphire. The quotient of 800 nm and 700 nm for Nocodazole only treated cells was set as 100% and the quotient of 800 nm and 700 nm of untreated cells was set as 0%. […] The IC50 values were determined by means of a 4 parameter fit.
as §2

T1 sequence (O43683 704-1085): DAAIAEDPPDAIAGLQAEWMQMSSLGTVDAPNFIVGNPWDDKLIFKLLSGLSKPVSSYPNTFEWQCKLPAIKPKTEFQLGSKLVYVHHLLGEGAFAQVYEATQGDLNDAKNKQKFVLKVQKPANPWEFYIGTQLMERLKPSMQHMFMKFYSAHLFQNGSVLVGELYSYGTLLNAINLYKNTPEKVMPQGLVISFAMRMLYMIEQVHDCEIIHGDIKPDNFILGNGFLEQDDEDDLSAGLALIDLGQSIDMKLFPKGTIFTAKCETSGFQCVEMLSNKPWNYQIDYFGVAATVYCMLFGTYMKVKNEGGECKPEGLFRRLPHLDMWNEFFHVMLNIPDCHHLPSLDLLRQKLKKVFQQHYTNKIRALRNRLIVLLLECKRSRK

For `COc1cnc(-c2nn(Cc3c(F)cc(OCCO)cc3F)c3ccccc23)nc1Nc1ccncc1C` [Example 2-1-5, 2-{3,5-difluoro-4-[(3-{5-methoxy-4-[(3-methylpyridin-4-yl)amino]pyrimidin-2-yl}-1H-indazol-1-yl)methyl]phenoxy}ethanol], the IC50 in test [1] was 150 nM; in test [2], 3100 nM; in test [3] it was 6.9 nM; in test [4], 10 nM; in test [5] it was 600 nM.

`COc1cnc(-c2nn(Cc3c(F)cc(OCCO)cc3F)c3ccccc23)nc1Nc1ccncc1F` [Example 2-1-6, 2-{3,5-difluoro-4-[(3-{4-[(3-fluoropyridin-4-yl)amino]-5-methoxypyrimidin-2-yl}-1H-indazol-1-yl)methyl]phenoxy}ethanol]: the IC50 came out at 370 nM in test [1]; 8500 nM in test [2]; 56 nM in test [3]; 7.7 nM in test [4]; 890 nM in test [5].

Take `COc1cnc(-c2nn(Cc3c(F)cc(OCCO)cc3F)c3ccccc23)nc1Nc1ccnc(F)c1` [Example 2-1-11, 2-{3,5-difluoro-4-[(3-{4-[(2-fluoropyridin-4-yl)amino]-5-methoxypyrimidin-2-yl}-1H-indazol-1-yl)methyl]phenoxy}ethanol]: the IC50 in test [1] is 110 nM; in test [2] it was 5100 nM; in test [3] it was 4.9 nM; in test [4], 19 nM; in test [5], 5.2 nM.

With `COc1cnc(-c2nn(Cc3c(F)cc(OCCO)cc3F)c3ccccc23)nc1Nc1cc(C)ncc1F` [Example 2-1-12, 2-{3,5-difluoro-4-[(3-{4-[(5-fluoro-2-methylpyridin-4-yl)amino]-5-methoxypyrimidin-2-yl}-1H-indazol-1-yl)methyl]phenoxy}ethanol], the IC50 was 420 nM in test [1]; greater than 10000 nM in test [2]; 6 nM in test [3]; 33 nM in test [4]; 11 nM in test [5].

Turning to `COc1cnc(-c2nn(Cc3c(F)cc(OCCO)cc3F)c3ccccc23)nc1Nc1ccncn1` [Example 2-1-13, 2-[3,5-difluoro-4-({3-[5-methoxy-4-(pyrimidin-4-ylamino)pyrimidin-2-yl]-1H-indazol-1-yl}methyl)phenoxy]ethanol], the IC50 in test [1] is 510 nM; in test [2], greater than 10000 nM; in test [3], 18 nM; in test [4] it was 5 nM; in test [5], 2.7 nM.

`COc1cnc(-c2nn(Cc3c(F)cc(OCCO)cc3F)c3ccccc23)nc1Nc1cc(NC(C)=O)ncc1C` [Example 2-1-14, N-{4-[(2-{1-[2,6-difluoro-4-(2-hydroxyethoxy)benzyl]-1H-indazol-3-yl}-5-methoxypyrimidin-4-yl)amino]-5-methylpyridin-2-yl}acetamide]: the IC50 in test [1] came to 1100 nM; in test [2], 1500 nM; in test [3] it was 39 nM; in test [4] it was 420 nM; in test [5] it was 11 nM.

As for `COc1cnc(-c2nn(Cc3c(F)cc(OCCO)cc3F)c3ccccc23)nc1Nc1ccnc(NC(=O)C2CC2)c1` [Example 2-1-15, N-{4-[(2-{1-[2,6-difluoro-4-(2-hydroxyethoxy)benzyl]-1H-indazol-3-yl}-5-methoxy-pyrimidin-4-yl)amino]pyridin-2-yl}cyclopropanecarboxamide], the IC50 in test [1] is 360 nM; in test [2], greater than 10000 nM; in test [3], 24 nM; in test [4], 9.8 nM; in test [5], 1.2 nM.

With `COc1cnc(-c2nn(Cc3c(F)cc(OCCO)cc3F)c3ccccc23)nc1Nc1ccnc(NC(=O)NC2CC2)c1` [Example 2-1-16, 1-cyclopropyl-3-{4-[(2-{1-[2,6-difluoro-4-(2-hydroxyethoxy)benzyl]-1H-indazol-3-yl}-5-methoxypyrimidin-4-yl)amino]pyridin-2-yl}urea], the IC50 amounted to 300 nM in test [1]; 3100 nM in test [2]; 87 nM in test [3]; 17 nM in test [4]; 74 nM in test [5].

For the compound `COc1cnc(-c2nn(Cc3c(F)cc(OCCO)cc3F)c3ccccc23)nc1Nc1ccnc(C)c1OC` [Example 2-1-18, 2-{3,5-difluoro-4-[(3-{5-methoxy-4-[(3-methoxy-2-methylpyridin-4-yl)amino]pyrimidin-2-yl}-1H-indazol-1-yl)methyl]phenoxy}ethanol], the IC50 in test [1] is 51 nM; in test [2] it was 1400 nM; in test [3], 35 nM; in test [4], 14 nM; in test [5], 2.1 nM.
